Data published in patent US4359459A, “O-α-D-Multigalactopyranosyl-O-α-D-multiglucopyranosyl-O-β- D” (American Cyanamid Company, priority 1981, dated 1982).
Structures can show the parent of a compound that is named as a salt.

Experiments:
complement system = conditions: Br. J. Exp. Pathol. 33: 327 (1952); cited from earlier work
activated human C1 = biological target: T1, activated human C1 (Homo sapiens, UniProt P09871); test: Test Code 026 (C1 inhibitor); format: biochemical; conditions: in vitro; twofold serial dilution assay, higher well number indicates higher activity
T1 sequence (P09871 438-688 limits assumed): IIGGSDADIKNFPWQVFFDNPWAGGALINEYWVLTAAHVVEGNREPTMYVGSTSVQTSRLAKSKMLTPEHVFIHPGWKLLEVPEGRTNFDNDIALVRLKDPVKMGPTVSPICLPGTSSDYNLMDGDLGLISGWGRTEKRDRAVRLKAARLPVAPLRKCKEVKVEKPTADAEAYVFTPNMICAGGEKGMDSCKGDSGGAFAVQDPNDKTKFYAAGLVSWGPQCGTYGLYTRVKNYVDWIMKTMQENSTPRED
T1 sequence (P09871 16-437 limits assumed): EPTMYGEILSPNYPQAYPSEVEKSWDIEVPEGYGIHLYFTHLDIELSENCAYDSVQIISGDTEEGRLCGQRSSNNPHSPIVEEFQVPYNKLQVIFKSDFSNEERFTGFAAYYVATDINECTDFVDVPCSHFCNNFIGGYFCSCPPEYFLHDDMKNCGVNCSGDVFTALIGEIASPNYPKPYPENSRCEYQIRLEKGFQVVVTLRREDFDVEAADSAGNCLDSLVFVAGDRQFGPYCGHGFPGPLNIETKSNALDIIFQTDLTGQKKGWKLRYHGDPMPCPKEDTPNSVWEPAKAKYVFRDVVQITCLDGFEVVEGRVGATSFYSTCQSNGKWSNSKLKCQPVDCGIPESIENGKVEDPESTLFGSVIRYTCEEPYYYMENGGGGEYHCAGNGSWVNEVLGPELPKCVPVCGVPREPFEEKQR
Source text: (§1) An active inhibitor protects C2 from C1 and C4; (ii) Test Code 035 (C3-C9 inhibitor)--This test determines the ability of the late components of human complement (C3-C9) to lyse EAC 142 in the presence of appropriate dilutions of the test compound. An active inhibitor protects EAC 142 from lysis by human C3-C9; (iii) Test Code 036 (C-Shunt inhibitor)--In this test human erythrocytes rendered fragile are lysed in autologous serum via the shunt pathway activated by cobra venom factor in the presence of appropriate dilutions of the test compound. Inhibition of the shunt pathway results in failure of lysis; (iv) Cap 50 Test-- Here, appropriate amounts of the test compound are added to a pool of guinea pig serum in vitro, after which the undiluted serum capillary tube assay of U.S. Pat. No. 3,876,376 is run. The concentration of compound inhibiting 50% is reported; and (v) Guinea Pig Intraperitoneal Test (GPIP)--Guinea Pigs weighing about 300 g are dosed intraperitoneally (i.p.) with 200 mg/kg of the test compound dissolved in saline and adjusted to pH 7-8. […] Percent inhibition is calculated by comparison with simultaneous controls. […]

[1] = tested on: late components of human complement (C3-C9); test: Test Code 035 (C3-C9 inhibitor), lysis of EAC 142; format: biochemical; set-up: key: N = Negative; conditions: in vitro; twofold serial dilution assay
Source text: as §1

shunt pathway = test: Test Code 036 (C-Shunt inhibitor), lysis of fragile human erythrocytes in autologous serum, cobra venom factor; format: biochemical; conditions: in vitro; twofold serial dilution assay, higher well number indicates higher activity
Source text: as §1

complement activity = test: Guinea Pig Intraperitoneal Test (GPIP); format: in vivo, Guinea Pigs; conditions: 200 mg/kg i.p.
Source text: An active inhibitor protects C2 from C1 and C4; (ii) Test Code 035 (C3-C9 inhibitor)--This test determines the ability of the late components of human complement (C3-C9) to lyse EAC 142 in the presence of appropriate dilutions of the test compound. An active inhibitor protects EAC 142 from lysis by human C3-C9; (iii) Test Code 036 (C-Shunt inhibitor)--In this test human erythrocytes rendered fragile are lysed in autologous serum via the shunt pathway activated by cobra venom factor in the presence of appropriate dilutions of the test compound. Inhibition of the shunt pathway results in failure of lysis; (iv) Cap 50 Test-- Here, appropriate amounts of the test compound are added to a pool of guinea pig serum in vitro, after which the undiluted serum capillary tube assay of U.S. Pat. No. 3,876,376 is run. The concentration of compound inhibiting 50% is reported; and (v) Guinea Pig Intraperitoneal Test (GPIP)--Guinea Pigs weighing about 300 g are dosed intraperitoneally (i.p.) with 200 mg/kg of the test compound dissolved in saline and adjusted to pH 7-8. Approximately 0.4 ml blood samples, taken by orbital sinus puncture 30 minutes and one hour after injections, are collected directly into centrifuge tubes; 5 ml blood samples, taken by decapitation 2 hours after injection, are collected directly into diSPo® beakers. The samples are allowed to clot, centrifuged, and the resultant sera are assayed for complement activity using the capillary complement assay. Percent inhibition is calculated by comparison with simultaneous controls. The results of the GPIP appear in Table I together with results of Test Code 026, 035, 036 and Cap 50.

[2] = tested on: hereditary angioneurotic edema; conditions: literature reports; cited from earlier work
human serum = conditions: both in vitro and in vivo, judged by reduction in total hemolytic complement activity; cited from earlier work

In the case of Nc1ccc2cc(S(=O)(=O)[O-])cc(O)c2c1N=Nc1ccc(NC(=O)Nc2ccc(N=Nc3c(N)ccc4cc(S(=O)(=O)[O-])cc(O)c34)c(S(=O)(=O)[O-])c2)cc1S(=O)(=O)[O-].[Na+].[Na+].[Na+].[Na+] [chlorazol fast pink, 3,3'-ureylenebis[6-(2-amino-8-hydroxy-6-sulfo-1-naphthylazo)benzenesulfonic acid], tetrasodium salt], the anti-complementary effect (complement system) is listed as “anti-complementary effect”.

With O=S(=O)(O)OCC1OC(OCC2OC(COS(=O)(=O)O)(OC3OC(COC4OC(COC5OC(COS(=O)(=O)O)C(OS(=O)(=O)O)C(OS(=O)(=O)O)C5OS(=O)(=O)O)C(OS(=O)(=O)O)C(OS(=O)(=O)O)C4OS(=O)(=O)O)C(OS(=O)(=O)O)C(OS(=O)(=O)O)C3OS(=O)(=O)O)C(OS(=O)(=O)O)C2OS(=O)(=O)O)C(OS(=O)(=O)O)C(OS(=O)(=O)O)C1OC1OC(COS(=O)(=O)O)C(OC2OC(COS(=O)(=O)O)C(OS(=O)(=O)O)C(OS(=O)(=O)O)C2OS(=O)(=O)O)C(OS(=O)(=O)O)C1OS(=O)(=O)O [drawing 11, O-α-D-Galactopyranosyl(1→6)-O-α-D-galactopyranosyl(1→6)-O-α-D-glucopyranosyl(1→2)-O-β-D-fructofuranosyl(1→6)-O-α-D-glucopyranosyl(1→4)-O-α-D-glucopyranosyl-α-D-glucopyranoside, tricosakis (H-sulfate), tricosasalt with trimethylamine] the “Cl 026* Wells” value (activated human C1) was “+9 Wells”, the “C-Late 035* Wells” value [1] was “N” and the “C-Shunt Inhibition 036* Wells” value (shunt pathway) was “+5 Wells”.

With O=S(=O)(O)OCC1OC(OCC2OC(COS(=O)(=O)O)(OC3OC(COC4OC(COC5OC(COS(=O)(=O)O)C(OS(=O)(=O)O)C(OS(=O)(=O)O)C5OS(=O)(=O)O)C(OS(=O)(=O)O)C(OS(=O)(=O)O)C4OS(=O)(=O)O)C(OS(=O)(=O)O)C(OS(=O)(=O)O)C3OS(=O)(=O)O)C(OS(=O)(=O)O)C2OS(=O)(=O)O)C(OS(=O)(=O)O)C(OS(=O)(=O)O)C1OC1OC(COS(=O)(=O)O)C(OC2OC(COS(=O)(=O)O)C(OS(=O)(=O)O)C(OS(=O)(=O)O)C2OS(=O)(=O)O)C(OS(=O)(=O)O)C1OS(=O)(=O)O [drawing 12, O-α-D-Galactopyranosyl(1→6)-O-α-D-galactopyranosyl(1.fwd arw.6)-O-α-D-glucopyranosyl(1→2)-O-β-D-fructofuranosyl(1→6)-O-α-D-glucopyranosyl(1→4)-O-α-D-glucopyranosyl-α-D-glucopyranoside, tricosakis (H-sulfate), tricosasodium salt] the “Cl 026* Wells” value (activated human C1) was “+9 Wells”, the “C-Late 035* Wells” value [1] was “N” and the “C-Shunt Inhibition 036* Wells” value (shunt pathway) was “+5 Wells”. For the same compound, the “In vivo Activity (Guinea Pigs) % Inhibition Intraperitoneal, 30 minutes” value (complement activity; serum 30 minutes after injection) was 63%, the “In vivo Activity (Guinea Pigs) % Inhibition Intraperitoneal, 60 minutes” value (complement activity; serum 60 minutes after injection) was 61% and the “In vivo Activity (Guinea Pigs) % Inhibition Intraperitoneal, 120 minutes” value (complement activity; serum 120 minutes after injection) was 67%.

For NCCCCCC(=O)O [epsilon-aminocaproic acid], the “treatment of hereditary angioneurotic edema” value [2] is given as “used with success”.

In the case of NC[C@H]1CC[C@H](C(=O)O)CC1 [tranexamic acid], the “treatment of hereditary angioneurotic edema” value [2] is listed as “used with success”.

For heparin, the anti-complementary effect (complement system) is listed as “anti-complementary effect”.

For pentosanpolysulfoester, the “anticomplementary activity on human serum” value (human serum) is given as “anticomplementary activity”.
